Activity calls are given as the source filed them. No cut-off for these calls is given here.
How the values were obtained:
Assay type in all cases: cell-based
[1] = target: T1, Non-receptor tyrosine-protein kinase TYK2 (Homo sapiens, UniProt P29597); experiment: Induction of TYK2 degradation in human Jurkat cells at 10 uM incubated for 24 hrs by Western blot analysis
[2] = target: Tyrosine-protein kinase JAK2 (Homo sapiens) (UniProt O60674); experiment: Induction of JAK2 degradation in human Jurkat cells at 1 uM incubated for 6 hrs by Western blot analysis
[3] = target: T2, Tyrosine-protein kinase JAK1 (Homo sapiens, UniProt P23458); experiment: Induction of JAK1 degradation in human Jurkat cells at 1 uM incubated for 6 hrs by Western blot analysis
[4] = target: T3, Tyrosine-protein kinase JAK3 (Homo sapiens) (UniProt P52333); experiment: Induction of JAK3 degradation in human Jurkat cells at 1 uM incubated for 6 hrs by Western blot analysis
T3 sequence (whole entry): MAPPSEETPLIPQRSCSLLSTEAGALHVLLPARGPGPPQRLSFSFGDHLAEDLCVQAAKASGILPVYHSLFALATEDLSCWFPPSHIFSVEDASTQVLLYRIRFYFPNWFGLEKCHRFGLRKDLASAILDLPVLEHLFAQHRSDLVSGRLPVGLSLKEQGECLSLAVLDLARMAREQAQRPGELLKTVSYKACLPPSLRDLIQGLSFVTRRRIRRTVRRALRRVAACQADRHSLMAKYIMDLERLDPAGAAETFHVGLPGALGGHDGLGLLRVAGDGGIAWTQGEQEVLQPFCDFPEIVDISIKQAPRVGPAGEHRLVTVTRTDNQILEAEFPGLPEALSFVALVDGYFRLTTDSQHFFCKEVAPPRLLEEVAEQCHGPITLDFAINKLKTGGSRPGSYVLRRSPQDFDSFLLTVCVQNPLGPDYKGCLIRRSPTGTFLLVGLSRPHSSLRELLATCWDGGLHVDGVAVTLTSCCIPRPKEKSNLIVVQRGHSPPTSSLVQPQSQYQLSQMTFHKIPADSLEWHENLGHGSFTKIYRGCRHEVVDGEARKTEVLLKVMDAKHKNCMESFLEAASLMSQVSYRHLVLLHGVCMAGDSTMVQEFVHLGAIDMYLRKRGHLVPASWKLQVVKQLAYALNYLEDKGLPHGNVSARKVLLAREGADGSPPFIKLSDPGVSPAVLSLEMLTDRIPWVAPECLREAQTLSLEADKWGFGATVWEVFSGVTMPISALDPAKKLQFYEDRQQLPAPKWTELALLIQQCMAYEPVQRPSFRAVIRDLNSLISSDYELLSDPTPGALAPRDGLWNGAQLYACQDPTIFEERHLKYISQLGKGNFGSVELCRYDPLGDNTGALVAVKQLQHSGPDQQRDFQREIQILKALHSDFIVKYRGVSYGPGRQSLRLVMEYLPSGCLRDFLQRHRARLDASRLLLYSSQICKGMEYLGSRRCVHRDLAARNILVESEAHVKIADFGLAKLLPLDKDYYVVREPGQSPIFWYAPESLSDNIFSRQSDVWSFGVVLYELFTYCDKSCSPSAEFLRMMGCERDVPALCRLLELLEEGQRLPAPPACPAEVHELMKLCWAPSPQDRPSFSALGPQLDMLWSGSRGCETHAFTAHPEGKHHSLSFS

[5] = target: T1, Non-receptor tyrosine-protein kinase TYK2; experiment: Induction of TYK2 degradation in human Jurkat cells at 1 uM incubated for 24 hrs in presence of 6-(5-fluoropyridin-2-ylamino)-4-(2-methoxy-3-(methylcarbamoyl)phenylamino)-N-methylnicotinamide by Western blot analysis
[6] = target: T2, Tyrosine-protein kinase JAK1; experiment: Induction of JAK1 degradation in human Jurkat cells at 10 uM incubated for 24 hrs relative to control
[7] = target: T1, Non-receptor tyrosine-protein kinase TYK2; experiment: Induction of TYK2 degradation in human Jurkat cells at 100 nM incubated for 24 hrs relative to control
[8] = target: T1, Non-receptor tyrosine-protein kinase TYK2; experiment: Induction of TYK2 degradation in human Jurkat cells incubated for 24 hrs
[9] = target: T2, Tyrosine-protein kinase JAK1; experiment: Induction of JAK1 degradation in human Jurkat cells incubated for 24 hrs
[10] = target: T1, Non-receptor tyrosine-protein kinase TYK2; experiment: Induction of TYK2 degradation in human Jurkat cells at 1 uM incubated for 6 hrs by Western blot analysis
[11] = target: T1, Non-receptor tyrosine-protein kinase TYK2; experiment: Induction of TYK2 degradation in human Jurkat cells at 10 uM incubated for 24 hrs by Western blot analysis relative to control
[12] = target: T1, Non-receptor tyrosine-protein kinase TYK2; experiment: Induction of TYK2 degradation in human Jurkat cells assessed as reduction in TYK2 mRNA expression level up to 10 uM incubated for 6 to 24 hrs by quantitative-PCR analysis; settings: time 6-24 hrs
[13] = target: T1, Non-receptor tyrosine-protein kinase TYK2; experiment: Induction of TYK2 degradation in human Jurkat cells at 1 to 10 uM pretreated with MG-132 followed by compound treatment for 24 hrs by Western blot analysis; settings: dose 1-10 µM
[14] = target: T1, Non-receptor tyrosine-protein kinase TYK2; experiment: Induction of TYK2 degradation in human Jurkat cells incubated for 24 hrs by Western blot analysis
[15] = target: T1, Non-receptor tyrosine-protein kinase TYK2; experiment: Induction of TYK2 degradation in human Jurkat cells at 1 uM by Western blot analysis; settings: time 3-24 hrs, TDE = time-dependent effect
[16] = target: T2, Tyrosine-protein kinase JAK1; experiment: Induction of JAK1 degradation in human Jurkat cells at 1 uM incubated for 24 hrs relative to control
[17] = target: T1, Non-receptor tyrosine-protein kinase TYK2; experiment: Induction of TYK2 degradation in human Jurkat cells at 1 uM incubated for 24 hrs relative to control

Chain of Tyrosine-protein kinase JAK2 (Homo sapiens) (O60674 whole entry): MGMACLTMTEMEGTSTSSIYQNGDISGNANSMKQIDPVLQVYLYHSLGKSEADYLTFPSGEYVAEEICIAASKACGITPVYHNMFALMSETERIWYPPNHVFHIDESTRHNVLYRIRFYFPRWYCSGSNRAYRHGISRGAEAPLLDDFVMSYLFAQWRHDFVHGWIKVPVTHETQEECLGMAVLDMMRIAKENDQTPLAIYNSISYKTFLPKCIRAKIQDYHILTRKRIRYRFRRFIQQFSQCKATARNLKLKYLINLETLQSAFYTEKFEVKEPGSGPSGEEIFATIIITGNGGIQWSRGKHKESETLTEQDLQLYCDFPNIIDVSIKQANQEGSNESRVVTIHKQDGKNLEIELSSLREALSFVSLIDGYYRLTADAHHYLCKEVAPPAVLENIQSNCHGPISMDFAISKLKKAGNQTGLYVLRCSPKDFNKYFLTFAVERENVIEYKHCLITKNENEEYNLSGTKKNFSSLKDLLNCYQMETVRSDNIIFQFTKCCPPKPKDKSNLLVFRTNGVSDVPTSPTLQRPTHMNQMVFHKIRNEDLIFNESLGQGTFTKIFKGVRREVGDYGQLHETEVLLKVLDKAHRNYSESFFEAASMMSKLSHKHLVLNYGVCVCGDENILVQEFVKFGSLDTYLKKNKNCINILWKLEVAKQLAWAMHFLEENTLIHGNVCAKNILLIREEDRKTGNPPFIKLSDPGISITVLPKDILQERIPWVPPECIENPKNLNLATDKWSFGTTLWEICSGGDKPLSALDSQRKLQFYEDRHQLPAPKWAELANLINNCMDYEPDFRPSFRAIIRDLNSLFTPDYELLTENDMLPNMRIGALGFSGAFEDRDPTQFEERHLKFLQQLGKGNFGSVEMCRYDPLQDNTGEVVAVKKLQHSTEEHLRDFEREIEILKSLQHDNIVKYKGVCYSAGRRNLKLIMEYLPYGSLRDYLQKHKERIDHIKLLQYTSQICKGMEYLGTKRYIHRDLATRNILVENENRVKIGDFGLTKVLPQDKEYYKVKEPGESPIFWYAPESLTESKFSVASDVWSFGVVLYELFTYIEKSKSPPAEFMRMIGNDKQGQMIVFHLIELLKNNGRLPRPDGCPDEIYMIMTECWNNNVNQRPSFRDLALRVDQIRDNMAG
T2 sequence (P23458 whole entry): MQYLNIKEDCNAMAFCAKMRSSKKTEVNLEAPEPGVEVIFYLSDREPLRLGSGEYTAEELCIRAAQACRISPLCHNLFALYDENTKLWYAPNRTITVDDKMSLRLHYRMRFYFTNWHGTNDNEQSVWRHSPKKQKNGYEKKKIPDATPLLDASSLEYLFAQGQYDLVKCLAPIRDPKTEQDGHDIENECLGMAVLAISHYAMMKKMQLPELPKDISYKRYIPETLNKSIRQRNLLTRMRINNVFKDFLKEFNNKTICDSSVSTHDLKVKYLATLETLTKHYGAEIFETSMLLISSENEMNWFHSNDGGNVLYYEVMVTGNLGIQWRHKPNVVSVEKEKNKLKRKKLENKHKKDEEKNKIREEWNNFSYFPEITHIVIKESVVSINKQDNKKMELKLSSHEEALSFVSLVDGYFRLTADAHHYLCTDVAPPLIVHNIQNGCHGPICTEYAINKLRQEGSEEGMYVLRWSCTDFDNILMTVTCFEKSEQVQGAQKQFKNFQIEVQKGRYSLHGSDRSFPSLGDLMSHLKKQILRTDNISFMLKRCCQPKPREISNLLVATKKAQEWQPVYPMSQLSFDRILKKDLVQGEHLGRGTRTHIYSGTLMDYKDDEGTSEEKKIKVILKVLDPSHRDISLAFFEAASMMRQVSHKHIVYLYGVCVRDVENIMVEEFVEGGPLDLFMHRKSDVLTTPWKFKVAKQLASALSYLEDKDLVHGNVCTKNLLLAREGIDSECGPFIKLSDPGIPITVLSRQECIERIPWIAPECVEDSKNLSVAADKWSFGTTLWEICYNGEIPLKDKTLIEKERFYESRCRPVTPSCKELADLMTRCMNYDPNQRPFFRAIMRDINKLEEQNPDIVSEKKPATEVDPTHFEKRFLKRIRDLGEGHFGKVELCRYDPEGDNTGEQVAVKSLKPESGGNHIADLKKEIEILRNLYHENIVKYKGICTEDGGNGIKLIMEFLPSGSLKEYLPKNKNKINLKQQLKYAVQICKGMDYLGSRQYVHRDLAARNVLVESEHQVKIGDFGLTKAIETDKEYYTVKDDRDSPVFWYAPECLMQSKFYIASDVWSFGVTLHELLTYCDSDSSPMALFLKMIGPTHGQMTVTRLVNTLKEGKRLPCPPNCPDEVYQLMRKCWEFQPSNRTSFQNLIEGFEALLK
T1 sequence (P29597 whole entry): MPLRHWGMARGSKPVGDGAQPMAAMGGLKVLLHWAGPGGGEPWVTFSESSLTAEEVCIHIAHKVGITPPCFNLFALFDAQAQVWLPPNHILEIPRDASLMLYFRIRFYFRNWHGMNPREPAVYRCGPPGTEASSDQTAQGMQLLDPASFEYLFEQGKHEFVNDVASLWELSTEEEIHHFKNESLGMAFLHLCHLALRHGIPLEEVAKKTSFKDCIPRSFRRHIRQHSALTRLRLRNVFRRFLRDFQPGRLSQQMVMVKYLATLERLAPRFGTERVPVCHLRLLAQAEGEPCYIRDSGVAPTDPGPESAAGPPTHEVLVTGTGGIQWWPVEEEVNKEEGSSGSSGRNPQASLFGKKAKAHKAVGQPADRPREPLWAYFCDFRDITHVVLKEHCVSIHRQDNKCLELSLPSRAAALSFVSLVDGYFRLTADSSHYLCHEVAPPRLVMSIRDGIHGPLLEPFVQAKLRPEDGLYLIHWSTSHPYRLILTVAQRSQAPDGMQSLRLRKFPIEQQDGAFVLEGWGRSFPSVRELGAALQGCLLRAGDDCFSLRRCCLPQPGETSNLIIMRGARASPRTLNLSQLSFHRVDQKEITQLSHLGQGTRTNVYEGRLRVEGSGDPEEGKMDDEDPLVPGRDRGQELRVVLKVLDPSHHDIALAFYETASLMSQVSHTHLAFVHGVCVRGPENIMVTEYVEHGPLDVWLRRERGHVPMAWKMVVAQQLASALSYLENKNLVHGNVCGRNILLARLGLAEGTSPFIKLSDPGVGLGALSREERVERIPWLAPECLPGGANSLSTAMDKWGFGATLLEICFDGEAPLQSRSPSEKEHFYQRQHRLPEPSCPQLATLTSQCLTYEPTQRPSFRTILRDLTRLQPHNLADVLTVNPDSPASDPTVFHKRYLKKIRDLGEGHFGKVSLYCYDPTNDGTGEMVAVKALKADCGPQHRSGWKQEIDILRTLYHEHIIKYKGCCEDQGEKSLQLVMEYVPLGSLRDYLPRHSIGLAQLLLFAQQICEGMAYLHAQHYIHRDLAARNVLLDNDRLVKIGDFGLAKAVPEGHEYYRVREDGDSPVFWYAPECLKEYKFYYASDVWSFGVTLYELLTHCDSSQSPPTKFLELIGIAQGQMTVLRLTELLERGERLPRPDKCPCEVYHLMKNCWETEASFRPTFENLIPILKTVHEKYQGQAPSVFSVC

SMILES | Activity [2] | Activity [3] | Activity [4] | other results
CNC(=O)c1cnc(Nc2ccc(F)cn2)cc1Nc1cccc(C(=O)NC)c1OC |  |  |  | Activity [1]: Active
Cc1ncsc1-c1ccc(CNC(=O)[C@@H]2C[C@@H](O)CN2C(=O)[C@@H](NC(=O)C2(C#N)CC2)C(C)(C)C)cc1 |  |  |  | Activity [5]: inactive; Activity [1]: Active
CNC(=O)c1cnc(Nc2ccc(C(=O)NCCCCCCCCCC(=O)N[C@H](C(=O)N3C[C@H](O)C[C@H]3C(=O)NCc3ccc(-c4scnc4C)cc3)C(C)(C)C)cn2)cc1Nc1cccc(-c2ncn(C)n2)c1OC | Active |  |  | Emax [6]: 25%; Emax [7]: 78%; DC50 [8]: 0.014 µM; DC50 [9]: ≥ 10 µM
CNC(=O)c1cnc(Nc2ccc(C(=O)NCCCCCCCCCCCC(=O)N[C@H](C(=O)N3C[C@H](O)C[C@H]3C(=O)NCc3ccc(-c4scnc4C)cc3)C(C)(C)C)cn2)cc1Nc1cccc(C(=O)NC)c1OC | inactive | inactive | inactive | 
CNC(=O)c1cccc(Nc2cc(Nc3ccc(C(=O)NCCCCCCCCCC(=O)N[C@H](C(=O)N4C[C@H](O)C[C@H]4C(=O)NCc4ccc(-c5scnc5C)cc4)C(C)(C)C)cn3)ncc2C(N)=O)c1OC |  | Active |  | Emax [16]: 49%; Emax [17]: 85%; DC50 [8]: 0.023 µM; DC50 [9]: 1.1 µM
CNC(=O)c1cnc(Nc2ccc(C(=O)NCCCC(=O)N[C@H](C(=O)N3C[C@H](O)C[C@H]3C(=O)NCc3ccc(-c4scnc4C)cc3)C(C)(C)C)cn2)cc1Nc1cccc(C(=O)NC)c1OC | Active | Active | Active | 

The next lines start with results.

Activity [2] | Activity [3] | Activity [4] | SMILES | other results
inactive | inactive | inactive | CNC(=O)c1cnc(Nc2ccc(C(=O)NCCCCCCCCC(=O)N[C@H](C(=O)N3C[C@H](O)C[C@H]3C(=O)NCc3ccc(-c4scnc4C)cc3)C(C)(C)C)cn2)cc1Nc1cccc(C(=O)NC)c1OC | 
inactive | inactive | inactive | CNC(=O)c1cnc(Nc2ccc(C(=O)NCCCCCCCC(=O)N[C@H](C(=O)N3C[C@H](O)C[C@H]3C(=O)NCc3ccc(-c4scnc4C)cc3)C(C)(C)C)cn2)cc1Nc1cccc(C(=O)NC)c1OC | 
inactive | inactive | inactive | CNC(=O)c1cnc(Nc2ccc(C(=O)NCCCCCCCCCCC(=O)N[C@H](C(=O)N3C[C@H](O)C[C@H]3C(=O)NCc3ccc(-c4scnc4C)cc3)C(C)(C)C)cn2)cc1Nc1cccc(C(=O)NC)c1OC | 
inactive | inactive | inactive | CNC(=O)c1cnc(Nc2ccc(C(=O)NCCCCCC(=O)N[C@H](C(=O)N3C[C@H](O)C[C@H]3C(=O)NCc3ccc(-c4scnc4C)cc3)C(C)(C)C)cn2)cc1Nc1cccc(C(=O)NC)c1OC | 
inactive | inactive | inactive | CNC(=O)c1cnc(Nc2ccc(C(=O)NCCCCCCCCCC(=O)N[C@H](C(=O)N3C[C@H](O)C[C@H]3C(=O)NCc3ccc(-c4scnc4C)cc3)C(C)(C)C)cn2)cc1Nc1cccc(C(=O)NC)c1OC | Activity [10]: Active; Emax [11]: 77%; Activity [12]: inactive; Activity [5]: Active; Activity [13]: Active; DC50 [14]: 0.23 µM; Activity [15]: Tde

— ChEMBL document CHEMBL5223147, “Discovery of a potent and subtype-selective TYK2 degrader based on an allosteric TYK2 inhibitor” (Bioorg Med Chem Lett, 2023)
